Laboratory results taken from a polymer gas permeability compilation.

Row | H2 permeability | N2 permeability | O2 permeability | CH4 permeability | CO2 permeability | Structure (SMILES)
1 | 5.61 Barrer | 0.027 Barrer | 0.2 Barrer |  |  | *c1ccc(Oc2ccc(N3C(=O)c4ccc(S(=O)(=O)c5ccc6c(c5)C(=O)N(*)C6=O)cc4C3=O)cc2)cc1 (repeat unit)
2 | 2100 Barrer | 610 Barrer | 1200 Barrer | 1500 Barrer | 4700 Barrer | *C(=C(*)c1cccc([Si](C)(C)C)c1)c1ccccc1 (repeat unit)
3 | 315 Barrer | 55 Barrer | 140 Barrer | 140 Barrer | 800 Barrer | *C(=C(*)c1ccc(O[Si](C)(C)C(C)(C)C)cc1)c1ccc(F)cc1 (repeat unit)
4 |  |  | 0.4 Barrer | 0.04 Barrer | 1.8 Barrer | *Oc1ccc(C(C)(C)c2ccc(Oc3ccc4c(c3)C(=O)N(c3ccc(N5C(=O)c6ccc(*)cc6C5=O)cc3)C4=O)cc2)cc1 (repeat unit)
5 | 41 Barrer | 3 Barrer | 8 Barrer |  |  | *C(C(=O)OC(C)C)C(*)C(=O)OC1CCCCC1 (repeat unit)
6 | 13.3 Barrer | 0.155 Barrer | 0.977 Barrer |  |  | *c1ccc2c(c1)nc1n2C(=O)c2ccc(C(=O)Oc3ccc(C(c4ccc(OC(=O)c5ccc6c(c5)C(=O)n5c-6nc6ccc(*)cc65)cc4)(C(F)(F)F)C(F)(F)F)cc3)cc2-1 (repeat unit)
7 | 694 Barrer | 54 Barrer | 203 Barrer | 102 Barrer | 1430 Barrer | *Oc1ccc(-c2c(-c3ccc(Br)cc3)c(-c3ccc(Br)cc3)c(-c3ccc4c(c3)Oc3c(C#N)c(*)c(*)c(C#N)c3O4)c(-c3ccc(Br)cc3)c2-c2ccc(Br)cc2)cc1O* (repeat unit)
8 | 4.3 Barrer | 0.031 Barrer | 0.19 Barrer | 0.014 Barrer | 0.78 Barrer | *Nc1ccc(S(=O)(=O)c2ccc(NC(=O)c3cccc(C(*)=O)c3)cc2)cc1 (repeat unit)
9 |  | 0.012 Barrer | 0.081 Barrer | 0.0064 Barrer | 0.301 Barrer | *c1cccc(N2C(=O)c3ccc(Oc4ccc5c(c4)C(=O)N(*)C5=O)cc3C2=O)c1 (repeat unit)
10 |  | 0.278 Barrer | 1.56 Barrer | 0.32 Barrer | 8.12 Barrer | *Oc1ccc(C(C)(c2ccccc2)c2ccc(Oc3ccc(S(=O)(=O)c4ccc(*)cc4)cc3)cc2)cc1 (repeat unit)
11 | 156 Barrer | 3.27 Barrer | 16.5 Barrer | 1.74 Barrer | 73.5 Barrer | *c1cc2c(cc1C)-c1cc(C)c(N3C(=O)c4ccc(C(c5ccc6c(c5)C(=O)N(*)C6=O)(C(F)(F)F)C(F)(F)F)cc4C3=O)cc1S2(=O)=O (repeat unit)
12 | 4140 Barrer | 306 Barrer | 1150 Barrer | 395 Barrer | 5010 Barrer | *c1c(C)cc2c(c1C)C1c3ccccc3C2c2cc(C)c(-n3c(=O)c4cc5oc6cc7c(cc6oc5cc4c3=O)C3(C(C)C)c4ccccc4C7(C(C)C)c4cc5oc6cc7c(=O)n(*)c(=O)c7cc6oc5cc43)c(C)c21 (repeat unit)
13 |  | 0.95 Barrer | 4.25 Barrer | 0.84 Barrer | 16.6 Barrer | *c1ccc(-c2ccc(Oc3ccc(C4(c5ccc(Oc6ccc(-c7ccc(N8C(=O)c9ccc(Oc%10ccc(C(C)(C)c%11ccc(Oc%12ccc%13c(c%12)C(=O)N(*)C%13=O)cc%11)cc%10)cc9C8=O)cc7)cc6C(F)(F)F)cc5)c5ccccc5C(=O)N4c4ccccc4)cc3)c(C(F)(F)F)c2)cc1 (repeat unit)
14 |  | 0.47 Barrer | 2.26 Barrer | 0.14 Barrer | 9.57 Barrer | *c1ccc(Oc2ccc(C(c3ccccc3)(c3ccccc3)c3ccc(Oc4ccc(*)cc4)cc3)cc2)cc1 (repeat unit)
15 | 11.1 Barrer | 0.91 Barrer | 4.55 Barrer | 0.925 Barrer | 18.6 Barrer | *Oc1c(C)cc(-c2cc(C)c(Oc3ccc(S(=O)(=O)c4ccc(*)cc4)cc3)c(C)c2)cc1C (repeat unit)
16 | 41.9 Barrer | 1.18 Barrer | 5.95 Barrer | 1.43 Barrer | 24.2 Barrer | *Oc1ccc(C(C)(C)c2ccc(OC(=O)c3cc(C(*)=O)cc(C(C)(C)C)c3)cc2)cc1 (repeat unit)
17 | 6.8 Barrer | 0.07 Barrer | 0.45 Barrer | 0.05 Barrer | 1.9 Barrer | *Oc1ccc(Oc2cccc(*)c2C#N)c(-c2cccc(C)c2)c1 (repeat unit)
18 | 23600 Barrer | 10200 Barrer | 12700 Barrer | 24700 Barrer | 35800 Barrer | *C(=C(*)c1ccc2c(c1)C(C)(C)C(C)(C)C2(C)C)c1ccccc1 (repeat unit)

Row | H2 permeability | N2 permeability | O2 permeability | CH4 permeability | CO2 permeability | Structure (SMILES)
19 | 11 Barrer | 0.15 Barrer | 0.91 Barrer |  | 4.2 Barrer | *c1ccc(Oc2ccc(C(=O)c3ccc(Oc4ccc(C(*)(c5ccccc5)C(F)(F)F)cc4)cc3)cc2)cc1 (repeat unit)
20 | 2490 Barrer | 141 Barrer | 583 Barrer | 180 Barrer | 3000 Barrer | *c1c(C)cc(-c2cc(C)c(-n3c(=O)c4cc5oc6cc7c(cc6oc5cc4c3=O)C3(C)CCC7(C)c4cc5oc6cc7c(=O)n(*)c(=O)c7cc6oc5cc43)c3ccccc23)c2ccccc12 (repeat unit)
21 | 8.38 Barrer | 0.109 Barrer | 0.677 Barrer |  |  | *c1ccc(-c2ccc(N3C(=O)c4ccc([Si](C)(C)c5ccc6c(c5)C(=O)N(*)C6=O)cc4C3=O)cc2)cc1 (repeat unit)
22 | 5.1 Barrer | 0.051 Barrer | 0.38 Barrer | 0.041 Barrer | 1.5 Barrer | *Oc1ccc(Oc2ccc(C(=O)c3ccc(*)cc3)cc2)c(-c2cccc(C(F)(F)F)c2)c1 (repeat unit)
23 | 28 Barrer | 1.5 Barrer | 7.7 Barrer | 2.7 Barrer | 39.9 Barrer | *Oc1c(-c2ccccc2)cc(*)cc1-c1ccccc1 (repeat unit)
24 | 108 Barrer | 3.36 Barrer | 16.2 Barrer | 1.6 Barrer | 63.9 Barrer | *c1ccc(C(c2ccc(N3C(=O)c4ccc(C(c5ccc6c(c5)C(=O)N(*)C6=O)(C(F)(F)F)C(F)(F)F)cc4C3=O)cc2)(C(F)(F)F)C(F)(F)F)cc1 (repeat unit)
25 | 2280 Barrer | 176 Barrer | 752 Barrer | 257 Barrer | 1590 Barrer | *Oc1cc2c(cc1O*)C1(CC2(C)C)CC(C)(C)c2cc3c(cc21)Oc1c(CN)c(*)c(*)c(CN)c1O3 (repeat unit)
26 |  | 0.08 Barrer | 0.69 Barrer | 0.08 Barrer | 4.73 Barrer | *c1ccc(N(c2ccccc2)c2ccc(N3C(=O)c4ccc(C(c5ccc6c(c5)C(=O)N(*)C6=O)(C(F)(F)F)C(F)(F)F)cc4C3=O)cc2)cc1 (repeat unit)
27 |  | 0.14 Barrer | 1.16 Barrer | 0.09 Barrer | 5.2 Barrer | *c1ccc(-c2nnc(-c3cccc(-c4nnc(*)n4-c4ccccc4)c3)n2-c2ccccc2)cc1 (repeat unit)
28 | 360 Barrer | 23 Barrer | 85 Barrer | 27 Barrer | 520 Barrer | *c1ccc(C(c2ccc(-n3c(=O)c4cc5oc6cc7c(cc6oc5cc4c3=O)C3(CC(C)(C)c4cc5oc6cc8c(=O)n(*)c(=O)c8cc6oc5cc43)CC7(C)C)cc2)(C(F)(F)F)C(F)(F)F)cc1 (repeat unit)
29 | 8100 Barrer | 3300 Barrer | 4800 Barrer | 9100 Barrer | 17000 Barrer | *C(=C(*)c1ccc2c(c1)C(C)(C)c1ccccc1-2)c1ccccc1 (repeat unit)
30 | 210 Barrer | 7.5 Barrer | 32 Barrer | 8 Barrer | 182 Barrer | *c1c(C)cc(C)c(N2C(=O)c3ccc(-c4ccc5c(c4)C(=O)N(*)C5=O)cc3C2=O)c1C (repeat unit)
31 |  | 0.41 Barrer | 2.15 Barrer | 0.47 Barrer | 11.7 Barrer | *OC(=O)c1ccc(C(=O)Oc2ccc(C3(c4ccc(O*)cc4)OC(=O)c4ccccc43)cc2)cc1 (repeat unit)
32 | 40 Barrer | 0.732 Barrer | 4.42 Barrer |  |  | *c1c(C)cc(C)c(N2C(=O)c3ccc(Oc4ccc(Oc5ccc6c(c5)C(=O)N(*)C6=O)cc4)cc3C2=O)c1C (repeat unit)
33 | 4740 Barrer | 188 Barrer | 1070 Barrer | 215 Barrer |  | *CN1CN(*)c2cc3c(cc21)C1(C(C)C)c2ccccc2C3(C(C)C)c2cc(*)c(*)cc21 (repeat unit)
34 |  | 1.34 Barrer | 7.5 Barrer | 0.698 Barrer | 30 Barrer | *c1ccc(C(C)(C)c2ccc(N3C(=O)c4ccc(C(c5ccc6c(c5)C(=O)N(*)C6=O)(C(F)(F)F)C(F)(F)F)cc4C3=O)cc2)cc1 (repeat unit)
35 | 7.5 Barrer | 0.0729 Barrer | 0.51 Barrer | 0.069 Barrer | 2.14 Barrer | *C(=O)c1ccc(C2(c3ccc(C(=O)c4ccc(Oc5ccc(C(=O)c6ccc(C(=O)c7ccc(Oc8ccc(*)cc8)cc7)cc6)cc5)cc4)cc3)OC(=O)c3ccccc32)cc1 (repeat unit)
36 |  | 0.016 Barrer | 0.092 Barrer | 0.018 Barrer | 0.33 Barrer | *NCC(C)(C)CC(C)CCNC(=O)c1ccc(C(*)=O)cc1 (repeat unit)

Row | Structure (SMILES) | H2 permeability | N2 permeability | O2 permeability | CH4 permeability | CO2 permeability
37 | *CC(*)c1ccc(OC(C)=O)cc1 (repeat unit) |  | 0.64 Barrer | 3.1 Barrer | 0.99 Barrer | 16.3 Barrer
38 | *CC(*)c1ccc(O)cc1 (repeat unit) |  | 0.015 Barrer | 0.12 Barrer |  | 
39 | *CC(*)C(=O)OC (repeat unit) | 10.6 Barrer | 0.213 Barrer | 1.06 Barrer | 0.262 Barrer | 8.19 Barrer
40 | *CC(*)(F)F (repeat unit) | 0.538 Barrer | 0.0223 Barrer | 0.0826 Barrer | 0.02 Barrer | 0.517 Barrer
